Data on 2 compounds can be found in patent US12246011B2, “Radiation mitigator and method of use thereof” (Georgetown University, priority 2016, dated 2025).

For data set [1], the system named is YAMC (normal colonic epithelial cell line). The experiment in a line: Clonogenic assay for self-renewal (spheroid formation) after 4 Gy IR. In kind it is cell-based, Murine. As to conditions: treatment 24 h post-IR at 10 μM, 100 μM and 1 mM, spheroids counted at end of 192 h. The procedure:
(§1) Gamma radiation: YAMC (normal colonic epithelial cell line) were exposed to 4 Gy gamma ionizing radiation (IR) with air pumped into the chamber during exposure. A Gammacell 40 ^137Cs gamma irradiator was used with a dose rate of 0.8 Gy IR per minute. Dosimetry measurements were performed using Fricke Dosimetry systems. Measured absorbance dose was: Central Dose Rate (0.790 Gy/min±2.9%); 3 o'clock position (0.804 Gy/min±3.8%); and 7 o'clock position (0.808 Gy/min±2.7%). The experiments were performed within 6 months of the dosimetry analysis.
Clonogenic assay for self-renewal: Self-renewal is the hallmark for stem cells or stem-like cells. Clonogenic assay or clonal expansion of single cell into spheroids/organoids is the reputed method to analyze cell self-renewal. […] At the end of 192 h, spheroids were counted for quantitative assessment of the number of spheroids formed.
Gamma radiation: YAMC (normal colonic epithelial cell line) were exposed to 4 Gy gamma ionizing radiation (IR) with air pumped into the chamber during exposure. […] Measured absorbance dose was: Central Dose Rate (0.790 Gy/min±2.9%); 3 o'clock position (0.804 Gy/min±3.8%); and 7 o'clock position (0.808 Gy/min±2.7%). […]
Clonogenic assay for self-renewal: Self-renewal is the hallmark for stem cells or stem-like cells. […] At the end of 192 h, spheroids were counted for quantitative assessment of the number of spheroids formed. […]

Data set [2] has as its system C57BL/6 mice. In words: Barrier function study (intestinal epithelial permeability to FITC-dextran) after 14 Gy TBI. In kind it is in vivo. Particulars: three doses of 10 mg/kg body weight per day beginning 24 h post-IR, serum FITC 5 d post-IR. On the procedure: as §1, with “radiation: 7-week-old C57BL/6 mice” for “radiation: YAMC (normal colonic epithelial cell line)”, “to total body irradiation (TBI) 14” for “to 4”, “chamber during.” for “chamber during exposure.”, “analysis. All IR treatments were begun in the morning. […] All animals received easy access to liquid gel food and water in the cage.” for “analysis.”
Barrier function study: Two hours before euthanasia (5 d post-IR), each mouse was orally administered (gavage) with 100 μL of FITC-dextran (FITC dextran 4; MW 4000) at a dose of 80 mg/100 g body weight. Serum analysis of FITC concentration was performed in triplicate using Synergy Bio TEK plate reader.
Gamma radiation: 7-week-old C57BL/6 mice were exposed to total body irradiation (TBI) 14 Gy gamma ionizing radiation (IR) with air pumped into the chamber during. A Gammacell 40 ^137Cs gamma irradiator was used with a dose rate of 0.8 Gy IR per minute. […] Measured absorbance dose was: Central Dose Rate (0.790 Gy/min±2.9%); 3 o'clock position (0.804 Gy/min±3.8%); and 7 o'clock position (0.808 Gy/min±2.7%). […]

The test system of data set [3] is YAMC (normal colonic epithelial cell line). The experiment in a line: Colony forming assay (cell survival) after 4 Gy IR. It counts as cell-based, Murine. As to conditions: treatment 24 h post-IR at 10 μM, 100 μM and 1 mM, colonies counted at end of 96 h. The procedure:
as §1
Colony forming assay: Colony forming assay is universally recognized as the gold standard method for measuring the effects of radiation, chemotherapeutic drugs on cell viability, and cell survival. […] At the end of 96 h, cells were fixed and counted for number of colonies formed. The number of colonies formed represents the number of cells survived.
Gamma radiation: YAMC (normal colonic epithelial cell line) were exposed to 4 Gy gamma ionizing radiation (IR) with air pumped into the chamber during exposure. A Gammacell 40 ^137Cs gamma irradiator was used with a dose rate of 0.8 Gy IR per minute. Dosimetry measurements were performed using Fricke Dosimetry systems. Measured absorbance dose was: Central Dose Rate (0.790 Gy/min±2.9%); 3 o'clock position (0.804 Gy/min±3.8%); and 7 o'clock position (0.808 Gy/min±2.7%). […]

The conditions of data set [4]: largest among ARBs; cited from earlier work.

With `CCCc1nc2c(C)cc(-c3nc4ccccc4n3C)cc2n1Cc1ccc(-c2ccccc2C(=O)O)cc1` [telmisartan, Telmisartan], in data set [1], the “self-renewal ability of YAMC cells (number of spheroids formed) compared to vehicle treatment” value was “significantly increased”. For the same compound, the “intestinal epithelial permeability to FITC-dextran versus vehicle control” value in data set [2] was “essentially the same”. The “YAMC cell survival (number of colonies formed) compared to vehicle treatment” value in data set [3] is given as “significantly increased”. In data set [4], the volume of distribution was 500 L.

As for `CC1(C)CC(O)CC(C)(C)N1[O]` [tempol, 4-hydroxy-2,2,6,6-tetramethylpiperidin-1-oxyl], the “self-renewal ability of YAMC cells (number of spheroids formed) compared to vehicle treatment” value in data set [1] was “significantly increased”. The “intestinal epithelial permeability to FITC-dextran versus vehicle control” value in data set [2] is on record as “essentially the same”. The “YAMC cell survival (number of colonies formed) compared to vehicle treatment” value in data set [3] is “significantly increased”.
